The results in this text go back to US20160002248A1, “GLS1 INHIBITORS FOR TREATING DISEASE” (Board of Regents, The University of Texas System, priority 2014, published 2016).

Molecules are shown by their SMILES.

In test [1] the target is T1, purified recombinant human GAC (GLS1) (Homo sapiens, UniProt O94925).
T1 sequence (O94925 55-598 isoform O94925-3 limits assumed): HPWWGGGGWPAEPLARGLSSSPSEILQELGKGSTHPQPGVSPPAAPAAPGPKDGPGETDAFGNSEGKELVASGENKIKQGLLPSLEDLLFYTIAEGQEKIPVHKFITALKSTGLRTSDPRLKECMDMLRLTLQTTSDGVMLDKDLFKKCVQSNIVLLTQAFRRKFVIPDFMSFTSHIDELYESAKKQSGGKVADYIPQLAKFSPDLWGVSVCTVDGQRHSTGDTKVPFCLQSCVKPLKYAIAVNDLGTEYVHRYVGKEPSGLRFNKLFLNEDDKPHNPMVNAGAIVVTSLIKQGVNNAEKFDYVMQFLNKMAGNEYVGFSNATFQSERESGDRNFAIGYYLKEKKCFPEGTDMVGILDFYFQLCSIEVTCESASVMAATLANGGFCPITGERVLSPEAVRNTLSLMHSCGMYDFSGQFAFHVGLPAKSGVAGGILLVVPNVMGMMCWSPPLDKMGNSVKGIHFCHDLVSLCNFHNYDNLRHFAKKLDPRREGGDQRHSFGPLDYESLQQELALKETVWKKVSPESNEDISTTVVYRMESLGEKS
Description: GLS1 Enzymatic Activity Assay (dual-coupled enzymatic assay). The test is classed as biochemical. As to the method:
GLS1 Enzymatic Activity Assay
The inhibition of purified recombinant human GAC by varying concentrations of inhibitors is assessed via a dual-coupled enzymatic assay. The glutamate produced by the glutaminase reaction is used by glutamate oxidase to produce α-ketoglutarate, ammonia, and hydrogen peroxide, with this hydrogen peroxide subsequently being used by horseradish peroxidase to produce resorufin in the presence of Amplex UltraRed. The assay buffer consisted of 50 mM Hepes (pH 7.4), 0.25 mM EDTA and 0.1 mM Triton X-100. GAC was incubated with potassium phosphate (10 minutes at room temperature) prior to incubation with inhibitor (10 minutes at room temperature). The final reaction conditions were as follows: 2 nM GAC, 50 mM potassium phosphate, 100 mU/mL glutamate oxidase (Sigma), 1 mM glutamine (Sigma), 100 mU/mL horseradish peroxidase (Sigma), 75 μM Amplex UltraRed (Life Technologies), and 1% (v/v) DMSO. The production of resorufin was monitored on a Perkin Elmer Envision plate reader (excitation 530 nm, emission 590 nm) either in a kinetics or endpoint mode (at 20 minutes). IC50 values were calculated using a four-parameter logistic curve fit.

In a further test the test system is A549 cells. Briefly: Proliferation Assay (A549 cell viability, Cell Titer Fluor). The format is cell-based. As to conditions: Homo sapiens, 72 hours. On the procedure:
A549 cells were routinely maintained in RPMI 1640 media (Gibco catalog number 11875-093) supplemented with 10% dialyzed fetal bovine serum using a humidified incubator (37° C., 5% CO2 and ambient O2). In preparation for the viability assay, cells were inoculated into 384-well black CulturPlates (Perkin Elmer) at a density of 1000 cells/well in a volume of 40 uL. Following a 24-hour incubation at 37° C., 5% CO2 and ambient O2, cells were treated with compound (10 uL) in a final DMSO concentration of 0.5% (v/v). The microplates were then incubated for 72 hours (37° C., 5% CO2 and ambient O2). Cell Titer Fluor (Promega) was subsequently added (10 uL of 6× reagent) and mixed for 15 minutes at room temperature. The plates were then incubated for 30 minutes (37° C., 5% CO2 and ambient O2) and fluorescence was subsequently read on the Perkin Elmer Envision plate reader. EC50 values were calculated using a four-parameter logistic curve fit.

Turning to `O=C(Cc1ccccn1)Nc1nnc(CCCCc2cc3cc[nH]c3nn2)s1` [Example 2, N-(5-(4-(7H-pyrrolo[2,3-c]pyridazin-3-yl)butyl)-1,3,4-thiadiazol-2-yl)-2-(pyridin-2-yl)acetamide], in test [1], the IC50 was 500 to 5000 nM. The same compound came in with a 50% effective concentration (EC50) in the test with A549 cells of 500 to 5000 nM.
As to `O=C(Cc1ccccc1)Nc1nnc(CCCCc2cc3cc(Cc4ccccc4)[nH]c3nn2)s1` [Example 4, N-(5-(4-(6-benzyl-7H-pyrrolo[2,3-c]pyridazin-3-yl)butyl)-1,3,4-thiadiazol-2-yl)-2-phenylacetamide], in test [1], the IC50 was under 100 nM. The compound also yielded a 50% effective concentration (EC50) in the test with A549 cells of 100 to 500 nM.
The like results for `O=C(Nc1nnc(CCCCc2cc3cc(Cc4ccccc4)[nH]c3nn2)s1)[C@@H](O)c1ccccc1` [Example 5, (S)—N-(5-(4-(6-benzyl-7H-pyrrolo[2,3-c]pyridazin-3-yl)butyl)-1,3,4-thiadiazol-2-yl)-2-hydroxy-2-phenylacetamide] were, in that order, under 100 nM and 100 to 500 nM.
With `NCc1cccc(CC(=O)Nc2nnc(CCCCc3cc4cc(Cc5ccccc5)[nH]c4nn3)s2)c1` [Example 6, 2-(3-(aminomethyl)phenyl)-N-(5-(4-(6-benzyl-7H-pyrrolo[2,3-c]pyridazin-3-yl)butyl)-1,3,4-thiadiazol-2-yl)acetamide], in test [1], the IC50 is under 100 nM. In the test with A549 cells, this compound returned an EC50 of 500 to 5000 nM.
The like results for `O=C(Nc1nnc(CCCCc2cc3cc(C4CC4)[nH]c3nn2)s1)[C@@H](O)c1ccccc1` [Example 8, (S)—N-(5-(4-(6-Cyclopropyl-7H-pyrrolo[2,3-c]pyridazin-3-yl)butyl)-1,3,4-thiadiazol-2-yl)-2-hydroxy-2-phenylacetamide] were, in that order, under 100 nM and 500 to 5000 nM.
Turning to `O=C(Cc1ccccc1)Nc1ccn(CCCCc2cc3cc(Cc4ccccc4)[nH]c3nn2)c(=O)c1` [Example 9, N-(1-(4-(6-Benzyl-7H-pyrrolo[2,3-c]pyridazin-3-yl)butyl)-2-oxo-1,2-dihydropyridin-4-yl)-2-phenylacetamide], the IC50 in test [1] is under 100 nM. This compound yielded an EC50 in the test on A549 cells of 500 to 5000 nM.
For `CC(C)CNC(=O)c1nnc(CCCCc2cc3cc(Cc4ccccc4)[nH]c3nn2)s1` [Example 10, 5-(4-(6-Benzyl-7H-pyrrolo[2,3-c]pyridazin-3-yl)butyl)-N-isobutyl-1,3,4-thiadiazole-2-carboxamide], in test [1], the 50% inhibitory concentration (IC50) was in the range of 100 to 500 nM. The 50% effective concentration (EC50) with A549 cells fell in the range of 500 to 5000 nM.
For `CC(C)c1cc2cc(CCCCn3cc(C(=O)NCc4ccccn4)nn3)nnc2[nH]1` [Example 12, 1-(4-(6-isopropyl-7H-pyrrolo[2,3-c]pyridazin-3-yl)butyl)-N-(pyridin-2-ylmethyl)-1H-1,2,3-triazole-4-carboxamide], the concentration for half-maximal inhibition (IC50) in test [1] lay within 100 to 500 nM. Besides, the EC50 with A549 cells was 500 to 5000 nM.
The like results for `CC(C)Cc1cc2cc(CCCCn3cc(C(=O)NCc4ccccc4)nn3)nnc2[nH]1` [Example 13, N-benzyl-1-(4-(6-isobutyl-7H-pyrrolo[2,3-c]pyridazin-3-yl)butyl)-1H-1,2,3-triazole-4-carboxamide] were, in that order, 100 to 500 nM and 500 to 5000 nM.
The like results for `O=C(NCc1ccccc1)c1cn(CCCCc2cc3cc(Cc4ccccc4)[nH]c3nn2)nn1` [Example 14, N-benzyl-1-(4-(6-benzyl-7H-pyrrolo[2,3-c]pyridazin-3-yl)butyl)-1H-1,2,3-triazole-4-carboxamide] were, in that order, under 100 nM and 500 to 5000 nM.
For `O=C(NCc1ccccc1)c1cn(CCCCc2cc3c(I)c[nH]c3nn2)nn1` [Example 15, N-benzyl-1-(4-(5-iodo-7H-pyrrolo[2,3-c]pyridazin-3-yl)butyl)-1H-1,2,3-triazole-4-carboxamide], the concentration for half-maximal inhibition (IC50) in test [1] was 100 to 500 nM. In the test with A549 cells, this compound came in with an EC50 of 500 to 5000 nM.
The like results for `O=C(NCc1ccccn1)c1cn(CCCCc2cc3cc(C4CC4)[nH]c3nn2)nn1` [Example 16, 1-(4-(6-cyclopropyl-7H-pyrrolo[2,3-c]pyridazin-3-yl)butyl)-N-(pyridin-2-ylmethyl)-1H-1,2,3-triazole-4-carboxamide] were, in that order, 100 to 500 nM and 100 to 500 nM.
The like results for `CC(C)(O)c1ccnc(CNC(=O)c2cn(CCCCc3cc4cc(C5CC5)[nH]c4nn3)nn2)c1` [Example 17, 1-(4-(6-Cyclopropyl-7H-pyrrolo[2,3-c]pyridazin-3-yl)butyl)-N-((4-(2-hydroxypropan-2-yl)pyridin-2-yl)methyl)-1H-1,2,3-triazole-4-carboxamide 2,2,2-trifluoroacetate] were, in that order, 100 to 500 nM and 500 to 5000 nM.
`Cc1ccc(CNC(=O)c2cn(CCCCc3cc4c(Br)c(C5CC5)[nH]c4nn3)nn2)cn1` [Example 18, 1-(4-(5-Bromo-6-cyclopropyl-7H-pyrrolo[2,3-c]pyridazin-3-yl)butyl)-N-((6-methylpyridin-3-yl)methyl)-1H-1,2,3-triazole-4-carboxamide 2,2,2-trifluoroacetate]: in test [1], the IC50 is under 100 nM. Besides, the EC50 with A549 cells is 100 to 500 nM.
As for `Cc1ccc(CNC(=O)c2cn(CCCCc3cc4c(Cl)c(C5CC5)[nH]c4nn3)nn2)cn1` [Example 19, 1-(4-(5-Chloro-6-cyclopropyl-7H-pyrrolo[2,3-c]pyridazin-3-yl)butyl)-N-((6-methylpyridin-3-yl)methyl)-1H-1,2,3-triazole-4-carboxamide 2,2,2-trifluoroacetate], in test [1], the IC50 is under 100 nM. Besides, the concentration for a half-maximal effect (EC50) in the test with A549 cells lay within 500 to 5000 nM.
The like results for `O=C(NCc1ccccn1)c1cn(CCCCc2cc3c(-c4ccccc4)c[nH]c3nn2)nn1` [Example 20, 1-(4-(5-phenyl-7H-pyrrolo[2,3-c]pyridazin-3-yl)butyl)-N-(pyridin-2-ylmethyl)-1H-1,2,3-triazole-4-carboxamide] were, in that order, 500 to 5000 nM and over 5000 nM.
The like results for `O=C(NCc1ccccn1)c1cn(CCCCc2cc3cc(C4(O)COC4)[nH]c3nn2)nn1` [Example 21, 1-(4-(6-(3-hydroxyoxetan-3-yl)-7H-pyrrolo[2,3-c]pyridazin-3-yl)butyl)-N-(pyridin-2-ylmethyl)-1H-1,2,3-triazole-4-carboxamide] were, in that order, 100 to 500 nM and over 5000 nM.
For the compound `O=C(Cc1ccccc1)Nc1nnc(CCCCc2cnc3[nH]ccc3c2)s1` [Example 24, N-(5-(4-(1H-pyrrolo[2,3-b]pyridin-5-yl)butyl)-1,3,4-thiadiazol-2-yl)-2-phenylacetamide], in test [1], the IC50 was in the range of 100 to 500 nM. The compound also had an EC50 in the test with A549 cells of over 5000 nM.
The like results for `O=C(Cc1ccccn1)Nc1nnc(CCCCc2cc3cc(Cc4ccccc4)[nH]c3nn2)s1` [Example 26, N-[5-(4-{6-benzyl-7H-pyrrolo[2,3-c]pyridazin-3-yl}butyl)-1,3,4-thiadiazol-2-yl]-2-(pyridin-2-yl)acetamide] were, in that order, under 100 nM and 100 to 500 nM.
The like results for `O=C(NCc1cccc(OC(F)(F)F)c1)c1cn(CCCCc2cc3cc[nH]c3nn2)nn1` [Example 27, 1-(4-{7H-pyrrolo[2,3-c]pyridazin-3-yl}butyl)-N-{[3-(trifluoromethoxy)phenyl]methyl}-1H-1,2,3-triazole-4-carboxamide] were, in that order, 100 to 500 nM and 500 to 5000 nM.
The like results for `CC(C)Cc1cc2cc(CCCCn3cc(C(=O)NCc4ccccn4)nn3)nnc2[nH]1` [Example 28, 1-{4-[6-(2-methylpropyl)-7H-pyrrolo[2,3-c]pyridazin-3-yl]butyl}-N-(pyridin-2-ylmethyl)-1H-1,2,3-triazole-4-carboxamide] were, in that order, 500 to 5000 nM and 100 to 500 nM.
As to `O=C(Cc1ccccc1)Nc1ccn(CCCCc2cc3cc(C4CC4)[nH]c3nn2)c(=O)c1` [Example 29, N-[1-(4-{6-cyclopropyl-7H-pyrrolo[2,3-c]pyridazin-3-yl}butyl)-2-oxo-1,2-dihydropyridin-4-yl]-2-phenylacetamide], in test [1], the concentration for half-maximal inhibition (IC50) is 100 to 500 nM. The same compound had an EC50 with A549 cells of 500 to 5000 nM.

In general, IC50 refers to the concentration at which inhibition is half-maximal. In general, EC50 refers to the midpoint of the concentration-response curve.
